Assay results taken from patent US4288590A, “7 -[Dα-(4-Hydroxy-1,5-naphthyridine-3-carboxamido)-α-arylacetam ido]-3-(N,N-dimethyl-aminomethylpyridinium) methyl-3-cephem-4-carboxylates” (Bristol-Myers Company, priority 1980, dated 1981).
Counter-ions that a name gives are not always drawn.

Columns and labels:
E. coli (Gn-Ia) = assay: In vitro activity, MIC of strain group (Table 2); format: cell-based; details: Escherichia coli, 7 strains, read-out: Geometric mean of MIC
Method: (§1) Minimum inhibitory concentrations (MIC) of BB-S 651, BB-S 669 and BB-S 676 were determined by serial two-fold agar dilution method using Steers' apparatus on Mueller-Hinton agar plate against 15 test organisms for primary screening as shown in Table 1.

H. influenzae = assay: In vitro activity, MIC of strain group (Table 2); format: cell-based; details: Haemophilus influenzae; Gn-IV H. influenzae, 4 strains; read-out: Geometric mean of MIC
Method: as §1

K. pneumoniae (Gn-Ib) = assay: In vitro activity, MIC of strain group (Table 2); format: cell-based; details: Klebsiella pneumoniae, 5 strains, read-out: Geometric mean of MIC
Method: as §1

Neisseria sp. = assay: In vitro activity, MIC of strain group (Table 2); format: cell-based; details: Gn-IV Neisseria sp., 6 strains; read-out: Geometric mean of MIC
Method: as §1

P. aeruginosa = assay: In vitro activity, MIC of strain group (Table 2); format: cell-based; details: Pseudomonas aeruginosa; Gn-III P. aeruginosa, 32 strains; read-out: Geometric mean of MIC
Method: as §1

P. cepacia = assay: In vitro activity, MIC of strain group (Table 2); format: cell-based; details: Burkholderia cepacia; Gn-III P. cepacia, 4 strains; read-out: Geometric mean of MIC
Method: as §1

P. maltophilia = assay: In vitro activity, MIC of strain group (Table 2); format: cell-based; details: Stenotrophomonas maltophilia; Gn-III P. maltophilia, 13 strains; read-out: Geometric mean of MIC
Method: as §1

P. mirabilis (Gn-Ia) = assay: In vitro activity, MIC of strain group (Table 2); format: cell-based; details: Proteus mirabilis, 6 strains, read-out: Geometric mean of MIC
Method: as §1

P. mirabilis (Gn-Ib) = assay: In vitro activity, MIC of strain group (Table 2); format: cell-based; details: Proteus mirabilis, 2 strains, read-out: Geometric mean of MIC
Method: as §1

P. putida = assay: In vitro activity, MIC of strain group (Table 2); format: cell-based; details: Pseudomonas putida; Gn-III P. putida, 5 strains; read-out: Geometric mean of MIC
Method: as §1

P. stuartii = assay: In vitro activity, MIC of strain group (Table 2); format: cell-based; details: Providencia stuartii; Gn-II P. stuartii, 5 strains; read-out: Geometric mean of MIC
Method: as §1

S. aureus (Gp-Ia) = assay: In vitro activity, MIC of strain group (Table 2); format: cell-based; details: Staphylococcus aureus, 12 strains, read-out: Geometric mean of MIC
Method: as §1

S. aureus (Gp-Ib) = assay: In vitro activity, MIC of strain group (Table 2); format: cell-based; details: Staphylococcus aureus, 16 strains, read-out: Geometric mean of MIC
Method: as §1

S. pneumoniae = assay: In vitro activity, MIC of strain group (Table 2); format: cell-based; details: Streptococcus pneumoniae; Gp-II S. pneumoniae, 9 strains; read-out: Geometric mean of MIC
Method: as §1

S. pyogenes = assay: In vitro activity, MIC of strain group (Table 2); format: cell-based; details: Streptococcus pyogenes; Gp-II S. pyogenes, 10 strains; read-out: Geometric mean of MIC
Method: as §1

[1] = Mouse blood levels after intramuscular administration (Table 3); format: in vivo; details: im, read-out: Blood level; for concentration at 0.25 h: 15'; for concentration at 0.5 h: 30'; for concentration at 1 h: 60'; for concentration at 2 h: 120'
Method: (§2) […] The blood samples were collected from the orbital sinuses into heparinized capillary tubes at 15, 30, 60 and 120 minutes after administration. The antibiotic concentration was determined by the paper disc-agar diffusion method using E. coli NIHJ or S. lutea PCI 1001 as the assay organism.

[2] = Additional mouse blood levels after intramuscular administration (Table 4); format: in vivo; details: mice, im, read-out: Blood level
Method: as §2

S. aureus Smith A9537 = assay: In vivo efficacy, experimental infection in mice; details: Staphylococcus aureus, SMITHA9537, in Mus musculus, im, 120 h, read-out: PD50 (median protective dose)
Method: (§3) The mice were treated with test compound by im route immediately after the bacterial challenge.

S. aureus BX-1633 A9606 = assay: In vivo efficacy, experimental infection in mice; details: Staphylococcus aureus, BX1633A9606, in Mus musculus, im, 120 h, read-out: PD50 (median protective dose)
Method: as §3

S. pyogenes A20201 = assay: In vivo efficacy, experimental infection in mice; details: Streptococcus pyogenes, A20201, in Mus musculus, im, 120 h, read-out: PD50 (median protective dose)
Method: as §3

E. coli Juhl A15119 = assay: In vivo efficacy, experimental infection in mice; details: Escherichia coli, JUHLA15119, in Mus musculus, im, 120 h, read-out: PD50 (median protective dose)
Method: as §3

K. pneumoniae A9977 = assay: In vivo efficacy, experimental infection in mice; details: Klebsiella pneumoniae, A9977, in Mus musculus, im, 120 h, read-out: PD50 (median protective dose)
Method: as §3

P. mirabilis A9900 = assay: In vivo efficacy, experimental infection in mice; details: Proteus mirabilis, A9900, in Mus musculus, im, 120 h, read-out: PD50 (median protective dose)
Method: as §3

P. aeruginosa A9843 = assay: In vivo efficacy, experimental infection in mice; details: Pseudomonas aeruginosa, A9843, in Mus musculus, im, 120 h, read-out: PD50 (median protective dose)
Method: as §3

P. aeruginosa A21509 = assay: In vivo efficacy, experimental infection in mice; details: Pseudomonas aeruginosa, A21509, in Mus musculus, im, 120 h, read-out: PD50 (median protective dose)
Method: as §3

## CN(C)Cc1ccc[n+](CC2=C(C(=O)[O-])N3C(=O)C(NC(=O)[C@H](NC(=O)c4cnc5cccnc5c4O)c4ccc(O)cc4)C3SC2)c1 (stereo partly drawn) [BB-S 651, 7-[D-α-(4-Hydroxy-1,5-naphthyridine-3-carboxamido)-α-(4-hydroxyphenyl)acetamido]-3-(3-N,N-dimethylaminomethylpyridinium)methyl-3-cephem-4-carboxylate Hydrochloride]
E. coli (Gn-Ia)
  MIC: 2.6 µg/mL
H. influenzae
  MIC: 0.8 µg/mL
K. pneumoniae (Gn-Ib)
  MIC: > 100 µg/mL
Neisseria sp.
  MIC: 1.6 µg/mL
P. aeruginosa
  MIC: 1.7 µg/mL
P. cepacia
  MIC: 59 µg/mL
P. maltophilia
  MIC: 14 µg/mL
P. mirabilis (Gn-Ia)
  MIC: > 100 µg/mL
P. mirabilis (Gn-Ib)
  MIC: > 100 µg/mL
P. putida
  MIC: 22 µg/mL
P. stuartii
  MIC: 1.6 µg/mL
S. aureus (Gp-Ia)
  MIC: 3.7 µg/mL
S. aureus (Gp-Ib)
  MIC: 42 µg/mL
S. pneumoniae
  MIC: 0.8 µg/mL
S. pyogenes
  MIC: 0.4 µg/mL
[1]; 10 mg/kg
  concentration at 0.25 h: 5000 ng/mL
  concentration at 0.5 h: 3000 ng/mL
  concentration at 1 h: < 400 ng/mL
  concentration at 2 h: < 400 ng/mL
[1]; 20 mg/kg
  concentration at 0.25 h: 11000 ng/mL
  concentration at 0.5 h: 9000 ng/mL
  concentration at 1 h: 5000 ng/mL
  concentration at 2 h: < 400 ng/mL
[1]; 40 mg/kg
  concentration at 0.25 h: 25000 ng/mL
  concentration at 0.5 h: 18000 ng/mL
  concentration at 1 h: 11000 ng/mL
  concentration at 2 h: 3000 ng/mL
[2]; 10 mg/kg, dose 10, 1/2 hour
  concentration at 0.5 h: 3300 ng/mL
[2]; 10 mg/kg, dose 10, 1/4 hour
  concentration at 0.25 h: 4300 ng/mL
[2]; 10 mg/kg, dose 10, 1 hour
  concentration at 1 h: 2500 ng/mL
[2]; 10 mg/kg, dose 10, 2 hour
  concentration at 2 h: < 800 ng/mL
[2]; 20 mg/kg, dose 20, 1/2 hour
  concentration at 0.5 h: 7400 ng/mL
[2]; 20 mg/kg, dose 20, 1/4 hour
  concentration at 0.25 h: 10000 ng/mL
[2]; 20 mg/kg, dose 20, 1 hour
  concentration at 1 h: 5800 ng/mL
[2]; 20 mg/kg, dose 20, 2 hour
  concentration at 2 h: < 800 ng/mL
[2]; 40 mg/kg, 1/2 hour
  concentration at 0.5 h: 14000 ng/mL
[2]; 40 mg/kg, 1/4 hour
  concentration at 0.25 h: 20000 ng/mL
[2]; 40 mg/kg, 1 hour
  concentration at 1 h: 10000 ng/mL
[2]; 40 mg/kg, 2 hour
  concentration at 2 h: 3000 ng/mL
S. aureus Smith A9537
  ED50: 1.1 mg/kg
S. aureus BX-1633 A9606
  ED50: 6.3 mg/kg
S. pyogenes A20201
  ED50: 1.1 mg/kg
E. coli Juhl A15119
  ED50: 1.9 mg/kg
K. pneumoniae A9977
  ED50: 7.4 mg/kg
P. mirabilis A9900
  ED50: > 25 mg/kg
P. aeruginosa A9843
  ED50: 1.9 mg/kg
P. aeruginosa A21509
  ED50: 3.2 mg/kg

## CCN1CCN(C(=O)N[C@@H](C(=O)N[C@@H]2C(=O)N3C(C(=O)O)=C(CSc4nnnn4C)CS[C@H]23)c2ccc(O)cc2)C(=O)C1=O [Cefoperazone, reference compound]
E. coli (Gn-Ia)
  MIC: 0.2 µg/mL
H. influenzae
  MIC: 0.8 µg/mL
K. pneumoniae (Gn-Ib)
  MIC: 100 µg/mL
Neisseria sp.
  MIC: 0.8 µg/mL
P. aeruginosa
  MIC: 11 µg/mL
P. cepacia
  MIC: > 100 µg/mL
P. maltophilia
  MIC: 47 µg/mL
P. mirabilis (Gn-Ia)
  MIC: 0.8 µg/mL
P. mirabilis (Gn-Ib)
  MIC: 12.5 µg/mL
P. putida
  MIC: > 100 µg/mL
P. stuartii
  MIC: 0.8 µg/mL
S. aureus (Gp-Ia)
  MIC: 1.6 µg/mL
S. aureus (Gp-Ib)
  MIC: 17 µg/mL
S. pneumoniae
  MIC: 0.8 µg/mL
S. pyogenes
  MIC: 0.2 µg/mL
[1]; 10 mg/kg
  concentration at 0.25 h: 3500 ng/mL
  concentration at 0.5 h: 1800 ng/mL
  concentration at 1 h: < 400 ng/mL
  concentration at 2 h: < 400 ng/mL
[1]; 20 mg/kg
  concentration at 0.25 h: 9000 ng/mL
  concentration at 0.5 h: 5500 ng/mL
  concentration at 1 h: 1300 ng/mL
  concentration at 2 h: < 400 ng/mL
[1]; 40 mg/kg
  concentration at 0.25 h: 19000 ng/mL
  concentration at 0.5 h: 14000 ng/mL
  concentration at 1 h: 2500 ng/mL
  concentration at 2 h: < 400 ng/mL
[2]; 10 mg/kg, dose 10, 1/2 hour
  concentration at 0.5 h: 3500 ng/mL
[2]; 10 mg/kg, dose 10, 1/4 hour
  concentration at 0.25 h: 5000 ng/mL
[2]; 10 mg/kg, dose 10, 1 hour
  concentration at 1 h: 1200 ng/mL
[2]; 10 mg/kg, dose 10, 2 hour
  concentration at 2 h: < 800 ng/mL
[2]; 20 mg/kg, dose 20, 1/2 hour
  concentration at 0.5 h: 6300 ng/mL
[2]; 20 mg/kg, dose 20, 1/4 hour
  concentration at 0.25 h: 10500 ng/mL
[2]; 20 mg/kg, dose 20, 1 hour
  concentration at 1 h: 2500 ng/mL
[2]; 20 mg/kg, dose 20, 2 hour
  concentration at 2 h: < 800 ng/mL
[2]; 40 mg/kg, 1/2 hour
  concentration at 0.5 h: 12000 ng/mL
[2]; 40 mg/kg, 1/4 hour
  concentration at 0.25 h: 18000 ng/mL
[2]; 40 mg/kg, 1 hour
  concentration at 1 h: 5400 ng/mL
[2]; 40 mg/kg, 2 hour
  concentration at 2 h: 1200 ng/mL
S. aureus Smith A9537
  ED50: 2.4 mg/kg
S. aureus BX-1633 A9606
  ED50: 1.6 mg/kg
S. pyogenes A20201
  ED50: 2.5 mg/kg
E. coli Juhl A15119
  ED50: 1.1 mg/kg
K. pneumoniae A9977
  ED50: 0.6 mg/kg
P. mirabilis A9900
  ED50: 6.3 mg/kg
P. aeruginosa A9843
  ED50: 20 mg/kg
P. aeruginosa A21509
  ED50: 30 mg/kg
